Results published in patent US20150225454A1, “TETRABRANCHED PEPTIDES AND ANALOGUES AS A NEW CLASS OF ANTIMICROBIALS AND THEIR PREPARATION THEREOF” (priority 2012, published 2015).
Values after ≈ are worked out from the molar mass of the structure shown. “Also recorded” adds a separate entry of the source. Where two headings read alike, the source gives them in different places.

Legend:
rabbit red blood cells = assay type: cell-based
Protocol: Haemolytic activity of peptides and antifungal drugs were determined against rabbit red blood cells (Oren et al., 1997). Briefly, serial dilution of peptides/antifungals in PBS was mixed with rRBC (final concentration 4% v/v), incubated at 37° C. for 1 h and centrifuged at 3000 rpm for 10 minutes. The release of hemoglobin in the supernatant was monitored by measuring the hemoglobin absorbance at 576 nm. The readings from cell suspension in PBS (without any additives) or 1% Triton-X100 were used as 0% or 100% haemolysis.

[1] = system: C. albicans (ATCC 10231 and DF2672R); assay type: cell-based
Protocol: The time-kill kinetics was measured for two strains of C. albicans (ATCC 10231 and DF2672R). The cultures were grown overnight in SD broth and the cell concentration was adjusted to 10^5-10^6 CFU/ml with phosphate buffer. The peptide or antifungals were added to the individual cultures. […] The test solution was incubated at 37° C. with constant shaking. 100 μL of the suspension is withdrawn at predetermined time points, serially diluted (10^2 or 10^3 fold) and poured into the SDA plate. The plate was incubated for 48 h at 37° C. for colony counting. The data were expressed in terms of % cell viability relative to the positive control.

C. albicans = experiment: microbe, parasite or virus in culture; assay type: cell-based
Protocol: The yeast strains were cultivated and suspended in Sabouraud's Dextrose (SD) broth diluted at one sixth at a starting OD600=˜0.08 in a flat-bottomed microtitre plate. A serial dilution of peptide in the same broth was mixed with the inoculum to give a final peptide concentration of 0.4-22 μM. The antifungal activity was assessed by monitoring the OD600 in cycles of 30 minutes and an orbital shaking at 100 rpm using an Infinite M200 microplate reader (Tecan Group Ltd., Switzerland) for 24/48 h at 37° C. Cultures without peptides were used as positive controls and broth alone or with 22 μM peptide served as negative controls. The minimum concentration required for complete inhibition was assessed by both visible observations as well as by measuring the OD600 and taken as the MIC. Each experiment was repeated in triplicates.

fungi = conditions: cited from earlier work
IOBA-NHC cells = assay type: cell-based, human; conditions: 24 h incubation; read-out: EC50 (concentration that reduces the viable cells by 50%)
Method in brief: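 Subconfluent (~70%) IOBA-NHC conjunctival cells, passages 50–80, seeded ~10,000/well and grown 24 h at 37 °C in supplemented DMEM/F12 with 10% FBS. Exposed to peptide at 0.22–225 μM; cytotoxicity followed over time by MultiTox-Fluor […] fluorescence (ex 485/em 520 nm).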

SMILES | HC50 (rabbit red blood cells; rabbit, 1 h) | time required to achieve similar endpoints (4 log reduction) ([1]; ATCC strain, 16×MIC) | fungicidal action ([1]; C. albicans DF2672R, 2×MIC, 24 h exposure) | MIC (C. albicans; Candida albicans, C. albicans DF2672R) | Activity (fungi) | EC50 (IOBA-NHC cells) | HC50 (rabbit red blood cells) | time to maximal effect ([1]; C. albicans DF2672R, 16×MIC) | MIC for two C. albicans clinical isolates (C. albicans; two C. albicans clinical isolates)
C[C@@H]1C/C=C/C=C/C=C/C=C/[C@H](O[C@@H]2O[C@H](C)[C@@H](O)[C@H](N)[C@@H]2O)C[C@@H]2O[C@](O)(C[C@@H](O)C[C@H]3O[C@@H]3/C=C/C(=O)O1)C[C@H](O)[C@H]2C(=O)O [Natamycin, reference compound] | 139.6 ± 0.18 µM | 24 h | no fungicidal action | 15 µM (≈ 9.99 µg/mL) | Broad spectrum |  |  |  | 
C[C@@H]1[C@H](O)[C@@H](C)/C=C/C=C/C=C/C=C/C=C/C=C/C=C/[C@H](O[C@@H]2O[C@H](C)[C@@H](O)[C@H](N)[C@@H]2O)C[C@@H]2O[C@](O)(C[C@@H](O)C[C@@H](O)[C@H](O)CC[C@@H](O)C[C@@H](O)CC(=O)O[C@H]1C)C[C@H](O)[C@H]2C(=O)O [Amphotericin B, reference compound] |  |  |  |  | Broad spectrum; also recorded: Excellent agains Aspergilus & Candida | 134 ± 16 µM | 59.4 ± 7.8 µM | less than 8 h | 1.4 µM
